target: human ALK2 (Homo sapiens (Human), UniProt Q04771); experiment: LANCE Ultra ULight enzymatic assay (FOP Enzymatic Assay), ALK2; assay type: biochemical; conditions: 10 μM ATP
Sequence (Q04771 21-509): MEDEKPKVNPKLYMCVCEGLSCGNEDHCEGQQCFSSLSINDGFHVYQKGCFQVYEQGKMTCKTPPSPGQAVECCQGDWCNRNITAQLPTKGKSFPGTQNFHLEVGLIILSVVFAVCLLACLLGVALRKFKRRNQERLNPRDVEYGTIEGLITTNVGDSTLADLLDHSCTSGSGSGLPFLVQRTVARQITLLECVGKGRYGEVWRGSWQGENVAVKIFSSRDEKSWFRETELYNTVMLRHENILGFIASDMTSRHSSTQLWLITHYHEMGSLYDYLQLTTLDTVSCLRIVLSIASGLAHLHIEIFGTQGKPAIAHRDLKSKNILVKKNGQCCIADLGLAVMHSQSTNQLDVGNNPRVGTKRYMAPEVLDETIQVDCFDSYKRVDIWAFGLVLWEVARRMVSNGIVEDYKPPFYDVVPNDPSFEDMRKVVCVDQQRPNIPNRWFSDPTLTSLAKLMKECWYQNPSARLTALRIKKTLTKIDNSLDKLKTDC

| SMILES | IC50 |
| --- | --- |
| [2H]c1ccc2c(-c3cnn4cc(-c5ccc(O[C@H]6CCNC6)cn5)cnc34)cccc2n1 [Compound 65, (S)-5-(6-(5-(pyrrolidin-3-yloxy)pyridin-2-yl)pyrazolo[1,5-a]pyrimidin-3-yl)-2-^2H-quinoline] | 34 nM |
| [2H]c1ccc2c(-c3cnn4cc(-c5ccc(O[C@@H]6CCNC6)cn5)cnc34)cccc2n1 [Compound 63, (R)-5-(6-(5-(pyrrolidin-3-yloxy)pyridin-2-yl)pyrazolo[1,5-a]pyrimidin-3-yl)-2-^2H-quinoline] | 45 nM |

Next, values leading:

| IC50 | SMILES |
| --- | --- |
| 41 nM | [2H]c1ccc2c(-c3cnn4cc(-c5ccc(OC6CCNCC6)cn5)cnc34)cccc2n1 [Compound 61, 5-(6-(5-(piperidin-4-yloxy)pyridin-2-yl)pyrazolo[1,5-a]pyrimidin-3-yl)-2-^2H-quinoline] |
| 94 nM | [2H]c1ccc2c(-c3cnn4cc(-c5ccc(OCCN6CCCCC6)cn5)cnc34)cccc2n1 [Compound 47, 5-(6-(5-(2-(piperidin-1-yl)ethoxy)pyridin-2-yl)pyrazolo[1,5-a]pyrimidin-3-yl)-2-^2H-quinoline] |
| 28 nM | [2H]c1ccc2c(-c3cnn4cc(-c5ccc(OC(C)(C)CN6CCCCC6)cn5)cnc34)cccc2n1 [Compound 57, 5-(6-(5-((2-methyl-1-(piperidin-1-yl)propan-2-yl)oxy)pyridin-2-yl)pyrazolo[1,5-a]pyrimidin-3-yl)-2-^2H-quinoline] |

same assay, conditions: read-out: ALK2 IC50 (nM) at 10 μM ATP; 10 μM ATP

| SMILES | IC50 |
| --- | --- |
| CC(=O)Nc1ccc2c(-c3cnn4cc(-c5ccc(N6CCNCC6)cc5)cnc34)ccnc2c1 [Compound 26, N-(4-(6-(4-(piperazin-1-yl)phenyl)pyrazolo[1,5-a]pyrimidin-3-yl)quinolin-7-yl)acetamide] | 105 nM |
| Cc1ccc2c(-c3cnn4cc(-c5ccc(OC(C)(C)CN6CCCCC6)cn5)cnc34)cccc2n1 [Compound 58, 2-methyl-5-(6-(5-((2-methyl-1-(piperidin-1-yl)propan-2-yl)oxy)pyridin-2-yl)pyrazolo[1,5-a]pyrimidin-3-yl)quinoline] | 107 nM |
| c1cc(-c2cnn3cc(-c4ccc(OCCN5CCNCC5)nc4)cnc23)c2cccnc2c1 [Compound 42, 5-(6-(6-(2-(piperazin-1-yl)ethoxy)pyridin-3-yl)pyrazolo[1,5-a]pyrimidin-3-yl)quinoline] | 14 nM |
| Cc1cc(-c2cnn3cc(-c4ccc(N5[C@H](C)CNC[C@@H]5C)cc4)cnc23)c2ccccc2n1 [Compound 11, 4-(6-(4-((2R,6S)-2,6-dimethylpiperazin-1-yl)phenyl)pyrazolo[1,5-a]pyrimidin-3-yl)-2-methylquinoline] | 7.7 nM |
| NC(=O)c1cccc2c(-c3cnn4cc(-c5ccc(N6CCNCC6)cc5)cnc34)ccnc12 [Compound 23, 4-(6-(4-(piperazin-1-yl)phenyl)pyrazolo[1,5-a]pyrimidin-3-yl)quinoline-8-carboxamide] | 26 nM |
| Cc1ccc2c(-c3cnn4cc(-c5ccc(O[C@H]6CCNC6)cn5)cnc34)cccc2n1 [Compound 66, (S)-2-methyl-5-(6-(5-(pyrrolidin-3-yloxy)pyridin-2-yl)pyrazolo[1,5-a]pyrimidin-3-yl)quinoline] | 102 nM |
| c1cc(-c2cnn3cc(-c4ccc(N5CCNCC5)nc4)cnc23)c2cccnc2c1 [Compound 30, 5-(6-(6-(piperazin-1-yl)pyridin-3-yl)pyrazolo[1,5-a]pyrimidin-3-yl)quinoline] | 84 nM |
| Cc1ccc2c(-c3cnn4cc(-c5ccc(OC6CCN(C)CC6)cn5)cnc34)cccc2n1 [Compound 60, 2-methyl-5-(6-(5-((1-methylpiperidin-4-yl)oxy)pyridin-2-yl)pyrazolo[1,5-a]pyrimidin-3-yl)quinoline] | 155 nM |
| c1ccc2c(-c3cnn4cc(-c5ccc(N6CCNCC6)nc5)cnc34)ccnc2c1 [compound 1, 4-(6-(6-(piperazin-1-yl)pyridin-3-yl)pyrazolo[1,5-a]pyrimidin-3-yl)quinoline] | 29 nM |
| Cc1ccc2c(-c3cnn4cc(-c5ccc(O[C@@H]6CCNC6)cn5)cnc34)cccc2n1 [Compound 64, (R)-2-methyl-5-(6-(5-(pyrrolidin-3-yloxy)pyridin-2-yl)pyrazolo[1,5-a]pyrimidin-3-yl)quinoline] | 276 nM |
| C[C@@H]1CNC[C@H](C)N1c1ccc(-c2cnc3c(-c4ccnc5ccccc45)cnn3c2)cn1 [Compound 33, 4-(6-(6-((2R,6S)-2,6-dimethylpiperazin-1-yl)pyridin-3-yl)pyrazolo[1,5-a]pyrimidin-3-yl)quinoline] | 22 nM |
| CN1CCN(CCOc2ccc(-c3cnc4c(-c5cccc6ncccc56)cnn4c3)cn2)CC1 [Compound 44, 5-(6-(6-(2-(4-methylpiperazin-1-yl)ethoxy)pyridin-3-yl)pyrazolo[1,5-a]pyrimidin-3-yl)quinoline] | 17 nM |
| NC(=O)c1ccc2c(-c3cnn4cc(-c5ccc(N6CCNCC6)cc5)cnc34)ccnc2c1 [Compound 15, 4-(6-(4-(piperazin-1-yl)phenyl)pyrazolo[1,5-a]pyrimidin-3-yl)quinoline-7-carboxamide] | 127 nM |
| Clc1cc(-c2cnc3c(-c4ccnc5ccccc45)cnn3c2)ccc1N1CCNCC1 [Compound 35, 4-(6-(3-chloro-4-(piperazin-1-yl)phenyl)pyrazolo[1,5-a]pyrimidin-3-yl)quinoline] | 30 nM |

Other lines, results leading:

| IC50 | SMILES |
| --- | --- |
| 706 nM | NCc1ccc2c(-c3cnn4cc(-c5ccc(N6CCNCC6)cc5)cnc34)ccnc2c1 [Compound 20, (4-(6-(4-(piperazin-1-yl)phenyl)pyrazolo[1,5-a]pyrimidin-3-yl)quinolin-7-yl)methanamine] |
| 643 nM | Cc1ccc2c(-c3cnn4cc(-c5ccc(OCCN6CCNCC6)cn5)cnc34)cccc2n1 [Compound 50, 2-methyl-5-(6-(5-(2-(piperazin-1-yl)ethoxy)pyridin-2-yl)pyrazolo[1,5-a]pyrimidin-3-yl)quinoline] |
| 157 nM | COc1ccc2c(-c3cnn4cc(-c5ccc(N6[C@H](C)CNC[C@@H]6C)cc5)cnc34)cccc2n1 [Compound 67, 5-(6-(4-((2S,6R)-2,6-dimethylpiperazin-1-yl)phenyl)pyrazolo[1,5-a]pyrimidin-3-yl)-2-methoxyquinoline] |
| 24 nM | Clc1cc(-c2cnn3cc(-c4ccc(N5CCNCC5)cc4)cnc23)c2ccccc2n1 [Compound 8, 2-chloro-4-(6-(4-(piperazin-1-yl)phenyl)pyrazolo[1,5-a]pyrimidin-3-yl)quinoline] |
| 88 nM | O=C(O)c1cccc2c(-c3cnn4cc(-c5ccc(N6CCNCC6)cc5)cnc34)ccnc12 [Compound 22, 4-(6-(4-(piperazin-1-yl)phenyl)pyrazolo[1,5-a]pyrimidin-3-yl)quinoline-8-carboxylic acid] |
| 106 nM | CC(C)(CN1CCCCC1)Oc1ccc(-c2cnc3c(-c4cccc5ncccc45)cnn3c2)cc1 [Compound 32, 5-(6-(4-((2-methyl-1-(piperidin-1-yl)propan-2-yl)oxy)phenyl)pyrazolo[1,5-a]pyrimidin-3-yl)quinoline] |
| 44 nM | Nc1ccc2c(-c3cnn4cc(-c5ccc(N6CCNCC6)cc5)cnc34)ccnc2c1 [Compound 27, 4-(6-(4-(piperazin-1-yl)phenyl)pyrazolo[1,5-a]pyrimidin-3-yl)quinolin-7-amine] |
| 517 nM | OCCNCc1ccc2c(-c3cnn4cc(-c5ccc(N6CCNCC6)cc5)cnc34)ccnc2c1 [Compound 14, 2-(((4-(6-(4-(piperazin-1-yl)phenyl)pyrazolo[1,5-a]pyrimidin-3-yl)quinolin-7-yl)methyl)amino)ethanol] |
| 31 nM | Oc1ccc2c(-c3cnn4cc(-c5ccc(N6CCNCC6)cc5)cnc34)ccnc2c1 [Compound 28, 4-(6-(4-(piperazin-1-yl)phenyl)pyrazolo[1,5-a]pyrimidin-3-yl)quinolin-7-ol] |
| 16 nM | Clc1cc(-c2cnc3c(-c4cccc5ncccc45)cnn3c2)ccc1OCCN1CCCCC1 [Compound 46] |
| 66 nM | C[C@@H]1CNC[C@H](C)N1c1ccc(-c2cnc3c(-c4cccc5[nH]c(=O)ccc45)cnn3c2)cc1 [Compound 68, 5-(6-(4-((2S,6R)-2,6-dimethylpiperazin-1-yl)phenyl)pyrazolo[1,5-a]pyrimidin-3-yl)quinolin-2(1H)-one] |
| 32 nM | Fc1cc(-c2cnc3c(-c4cccc5ncccc45)cnn3c2)ccc1N1CCNCC1 [Compound 40] |
| 102 nM | OCc1ccc2c(-c3cnn4cc(-c5ccc(N6CCNCC6)cc5)cnc34)ccnc2c1 [Compound 16, (4-(6-(4-(piperazin-1-yl)phenyl)pyrazolo[1,5-a]pyrimidin-3-yl)quinolin-7-yl)methanol] |
| 906 nM | CNCc1ccc2c(-c3cnn4cc(-c5ccc(N6CCNCC6)cc5)cnc34)ccnc2c1 [Compound 18, N-methyl-1-(4-(6-(4-(piperazin-1-yl)phenyl)pyrazolo[1,5-a]pyrimidin-3-yl)quinolin-7-yl)methanamine] |
| 180 nM | Cc1ccc2c(-c3cnn4cc(-c5ccc(OC6CCNCC6)cn5)cnc34)cccc2n1 [Compound 62, 2-methyl-5-(6-(5-(piperidin-4-yloxy)pyridin-2-yl)pyrazolo[1,5-a]pyrimidin-3-yl)quinoline] |
| 792 nM | Oc1cc(-c2cnn3cc(-c4ccc(N5CCNCC5)cc4)cnc23)c2ccccc2n1 [Compound 9, 4-(6-(4-(piperazin-1-yl)phenyl)pyrazolo[1,5-a]pyrimidin-3-yl)quinolin-2-ol] |
| 16 nM | c1ccc2c(-c3cnn4cc(-c5ccc(N6CCNCC6)cn5)cnc34)ccnc2c1 [Compound 3] |
| 22 nM | c1ccc2c(-c3cnn4cc(-c5ccc(OCCN6CCNCC6)nc5)cnc34)ccnc2c1 [Compound 41, 4-(6-(6-(2-(piperazin-1-yl)ethoxy)pyridin-3-yl)pyrazolo[1,5-a]pyrimidin-3-yl)quinoline] |
| 62 nM | OCc1cccc2c(-c3cnn4cc(-c5ccc(N6CCNCC6)cc5)cnc34)ccnc12 [Compound 24, (4-(6-(4-(piperazin-1-yl)phenyl)pyrazolo[1,5-a]pyrimidin-3-yl)quinolin-8-yl)methanol] |

same assay, conditions: read-out: potency in ALK2 LANCE assay

| IC50 | SMILES |
| --- | --- |
| 800 nM | O=c1cc(-c2cnn3cc(-c4ccc(N5CCNCC5)cc4)cnc23)c2ccccc2[nH]1 [M422c, 4-(6-(4-(piperazin-1-yl)phenyl)pyrazolo[1,5-a]pyrimidin-3-yl)quinolin-2(1H)-one] |
